Type in all cases: biochemical
Experiment [1] deals with T1, HDAC6 enzyme (Homo sapiens, UniProt Q9UBN7).
T1 construct: transducing full length HDAC1 and HDAC6 genes into Sf-9 insect cells; GST; purchased SignalChem; host or cells: Sf-9 insect cells
T1 sequence (Q9UBN7 1-1215): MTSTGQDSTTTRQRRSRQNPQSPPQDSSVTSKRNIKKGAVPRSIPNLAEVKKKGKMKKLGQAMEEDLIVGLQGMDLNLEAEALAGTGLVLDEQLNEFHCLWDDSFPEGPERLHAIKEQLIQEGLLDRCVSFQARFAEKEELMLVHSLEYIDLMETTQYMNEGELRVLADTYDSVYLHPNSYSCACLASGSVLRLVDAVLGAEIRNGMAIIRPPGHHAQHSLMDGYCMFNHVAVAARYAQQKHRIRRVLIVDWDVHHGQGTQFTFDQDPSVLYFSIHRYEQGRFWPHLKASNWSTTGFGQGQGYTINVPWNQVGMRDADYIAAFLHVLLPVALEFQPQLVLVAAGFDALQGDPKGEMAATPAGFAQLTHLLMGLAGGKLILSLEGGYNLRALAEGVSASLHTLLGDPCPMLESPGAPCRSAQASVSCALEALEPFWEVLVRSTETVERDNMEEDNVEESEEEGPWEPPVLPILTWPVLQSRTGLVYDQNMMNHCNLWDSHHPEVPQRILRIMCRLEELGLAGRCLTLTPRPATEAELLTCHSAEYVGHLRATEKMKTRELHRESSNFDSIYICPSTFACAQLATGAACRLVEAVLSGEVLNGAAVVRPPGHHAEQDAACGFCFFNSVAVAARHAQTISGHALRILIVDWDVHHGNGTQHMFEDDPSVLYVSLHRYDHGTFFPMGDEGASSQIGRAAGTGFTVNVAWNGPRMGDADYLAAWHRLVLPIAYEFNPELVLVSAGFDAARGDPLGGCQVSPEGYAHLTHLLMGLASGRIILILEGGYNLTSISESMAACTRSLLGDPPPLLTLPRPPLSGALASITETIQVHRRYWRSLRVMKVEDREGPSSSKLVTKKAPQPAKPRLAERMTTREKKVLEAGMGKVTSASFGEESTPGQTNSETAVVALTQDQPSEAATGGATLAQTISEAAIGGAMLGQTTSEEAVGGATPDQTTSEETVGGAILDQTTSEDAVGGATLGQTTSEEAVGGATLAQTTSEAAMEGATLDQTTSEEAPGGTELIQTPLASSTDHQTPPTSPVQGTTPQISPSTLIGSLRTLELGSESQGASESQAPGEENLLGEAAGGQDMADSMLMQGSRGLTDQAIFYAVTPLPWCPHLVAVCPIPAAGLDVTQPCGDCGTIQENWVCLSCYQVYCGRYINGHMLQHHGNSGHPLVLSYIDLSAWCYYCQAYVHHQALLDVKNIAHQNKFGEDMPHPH
The experiment in a line: HDAC6 enzyme inhibitory assay (HDAC-Glo I/II Assay kit). Particulars: wells without enzyme = 100% inhibition, read-out: HDAC6 inhibitory rate (%) (1 μM). On the procedure:
(§1) HDAC1/6 Enzyme Inhibitory Assay
(§2) HDAC1 enzyme and HDAC6 enzyme each prepared by transducing full length HDAC1 and HDAC6 genes into Sf-9 insect cells and purifying by GST affinity column were purchased from SignalChem. Using these enzymes, HDAC1 and/or HDAC6 enzyme inhibitory activities of the compound of the present invention were evaluated. Enzymes were used after preserved at −70° C. HDAC1 or HDAC6 enzyme inhibitory activity of the compound of the present invention was measured using HDAC-Glo™ I/II Assay kit (Promega) according to the following experimental method. The test compound diluted with assay buffer (24 mM Tris-HCl (pH 7.5), 1 mM MgCl2, 0.35 mM KCl, 135 mM NaCl, 0.6 mM Glutathione, 0.01% Tween-20) was added to a 384-well plate by each 2 μL. Then, HDAC1 or HDAC6 enzyme solution diluted with assay buffer was added thereto by each 4 μL, and the plate was incubated at room temperature for 60 min. After incubated, HDAC substrate-Developer solution prepared according to Promega protocol attached to the assay kit was added to the 384-well plate by each 2 μL, and the enzyme reaction was started. After reacting at room temperature for 20 min, luminescence level was measured using plate reader Envision (PerkinElmer). The inhibitory activity of each compound was calculated as a relative activity value when luminescence level in wells without enzyme is considered as 100% inhibition.

For experiment [2], the target named is T2, HDAC1 enzyme (Homo sapiens, UniProt Q13547).
T2 construct: transducing full length HDAC1 and HDAC6 genes into Sf-9 insect cells; GST; purchased SignalChem; host or cells: Sf-9 insect cells
T2 sequence (Q13547 whole entry): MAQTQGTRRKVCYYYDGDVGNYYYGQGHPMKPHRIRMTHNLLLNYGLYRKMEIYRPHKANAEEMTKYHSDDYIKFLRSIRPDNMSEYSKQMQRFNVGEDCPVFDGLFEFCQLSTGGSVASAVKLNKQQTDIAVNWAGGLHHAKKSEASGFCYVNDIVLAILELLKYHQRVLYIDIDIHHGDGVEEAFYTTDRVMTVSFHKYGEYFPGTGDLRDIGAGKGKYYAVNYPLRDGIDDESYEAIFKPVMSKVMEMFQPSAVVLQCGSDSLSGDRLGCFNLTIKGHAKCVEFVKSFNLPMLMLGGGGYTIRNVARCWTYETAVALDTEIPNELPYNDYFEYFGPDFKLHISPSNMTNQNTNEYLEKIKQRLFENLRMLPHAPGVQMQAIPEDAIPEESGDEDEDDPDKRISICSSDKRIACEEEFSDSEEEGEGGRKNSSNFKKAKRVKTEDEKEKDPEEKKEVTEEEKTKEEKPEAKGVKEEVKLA
The experiment in a line: HDAC1 enzyme inhibitory assay (HDAC-Glo I/II Assay kit). Particulars: wells without enzyme = 100% inhibition, read-out: HDAC1 inhibitory rate (%) (1 μM). On the procedure:
as §1, §2

Experiment [3] has as its target T3, HDAC9 enzyme (Homo sapiens, UniProt Q9UKV0).
T3 construct: transducing full length HDAC9 gene into Sf-9 insect cells; made in house; host or cells: Sf-9 insect cells
Briefly: HDAC9 enzyme inhibitory assay (HDAC-Glo class IIa). The settings on record: wells without enzyme = 100% inhibition, read-out: HDAC9 inhibitory rate (%) (1 μM). How it is done:
HDAC9 Enzyme Inhibitory Assay
Enzyme was prepared by transducing full length HDAC9 gene into Sf-9 insect cells and purifying by Ni-NTA affinity column, and HDAC9 enzyme inhibitory activity was evaluated. Enzymes were used after preserved at −70° C. HDAC9 enzyme inhibitory activity of the test compound was measured using HDAC-Glo class IIa (Promega) according to the following experimental method. The test compound diluted with assay buffer (24 mM Tris-HCl (pH 7.5), 1 mM MgCl2, 0.35 mM KCl, 135 mM NaCl, 0.6 mM Glutathione, 0.01% Tween-20) was added to a 384-well plate by each 2 μL. Then, HDAC9 enzyme solution diluted with assay buffer was added thereto by each 2 μL, and the plate was incubated at room temperature for 60 min. After incubated, HDAC substrate-Developer solution prepared according to Promega protocol was added to the 384-well plate by each 4 μL, and the enzyme reaction was started. After reacting at room temperature for 20 min, luminescence level was measured using plate reader Envision (PerkinElmer). The inhibitory activity of each compound was calculated as a relative activity value when luminescence level in wells without enzyme is considered as 100% inhibition.

T3 sequence (Q9UKV0 whole entry, species assumed): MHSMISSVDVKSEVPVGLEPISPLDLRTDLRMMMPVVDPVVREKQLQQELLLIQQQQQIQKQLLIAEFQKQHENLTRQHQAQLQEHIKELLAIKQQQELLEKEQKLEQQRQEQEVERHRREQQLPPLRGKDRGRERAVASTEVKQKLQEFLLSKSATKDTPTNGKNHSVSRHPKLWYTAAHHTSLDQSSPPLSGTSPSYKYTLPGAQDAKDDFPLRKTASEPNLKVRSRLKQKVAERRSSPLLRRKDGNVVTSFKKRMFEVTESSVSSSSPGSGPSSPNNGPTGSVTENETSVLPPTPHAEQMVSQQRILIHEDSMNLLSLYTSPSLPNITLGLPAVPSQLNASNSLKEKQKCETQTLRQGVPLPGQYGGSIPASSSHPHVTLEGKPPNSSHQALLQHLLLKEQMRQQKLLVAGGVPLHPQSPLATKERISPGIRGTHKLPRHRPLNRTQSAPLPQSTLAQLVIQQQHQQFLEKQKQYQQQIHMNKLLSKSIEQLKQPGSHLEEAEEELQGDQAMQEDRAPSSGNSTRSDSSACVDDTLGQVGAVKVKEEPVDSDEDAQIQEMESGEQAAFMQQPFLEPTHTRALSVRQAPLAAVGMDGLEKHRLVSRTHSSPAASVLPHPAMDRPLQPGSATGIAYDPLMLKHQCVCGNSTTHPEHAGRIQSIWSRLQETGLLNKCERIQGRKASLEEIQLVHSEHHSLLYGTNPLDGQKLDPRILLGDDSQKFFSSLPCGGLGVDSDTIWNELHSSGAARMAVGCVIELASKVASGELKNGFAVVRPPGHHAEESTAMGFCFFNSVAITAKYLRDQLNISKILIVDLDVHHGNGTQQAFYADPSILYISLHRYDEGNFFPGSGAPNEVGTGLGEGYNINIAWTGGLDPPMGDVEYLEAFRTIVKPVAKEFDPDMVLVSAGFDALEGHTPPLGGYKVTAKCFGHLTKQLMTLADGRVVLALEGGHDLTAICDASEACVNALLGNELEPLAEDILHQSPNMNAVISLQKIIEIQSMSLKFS

For the compound `Cn1nccc1C(=O)NCC1CCCCN1C(=O)Nc1ccc(-c2noc(C(F)(F)F)n2)cc1` (stereo not drawn) [Example 41, 2-((((1-methyl-1H-pyrazol-5-yl)carbonyl)amino)methyl)-N-(4-(5-(trifluoromethyl)-1,2,4-oxadiazol-3-yl)phenyl)piperidine-1-carboxamide], the inhibition at 1 µM is 7% in experiment [1], 59% in experiment [2] and 98% in experiment [3].

On to `O=C(NCC1COCCN1C(=O)Nc1ccc(-c2noc(C(F)(F)F)n2)cc1)c1ccccc1` (stereo not drawn) [Example 1, 3-((benzoylamino)methyl)-N-(4-(5-(trifluoromethyl)-1,2,4-oxadiazol-3-yl)phenyl)morpholine-4-carboxamide], for which the inhibition at 1 µM came to 6% in experiment [1], 62% in experiment [2] and 98% in experiment [3].

Regarding `N#Cc1cccc(C(=O)NCC2CCCCN2C(=O)Nc2ccc(-c3noc(C(F)(F)F)n3)cc2)c1` (stereo not drawn) [Example 20, 2-(((3-cyanobenzoyl)amino)methyl)-N-(4-(5-(trifluoromethyl)-1,2,4-oxadiazol-3-yl)phenyl)piperidine-1-carboxamide], the results for the inhibition at 1 µM in experiment [1], in experiment [2] and in experiment [3] were 4%, 32% and 95%, respectively.

As for `O=C(NCC1CCCCN1C(=O)Nc1ccc(-c2noc(C(F)(F)F)n2)cc1)c1csc(C(F)(F)F)n1` (stereo not drawn) [Example 60, N-(4-(5-(trifluoromethyl)-1,2,4-oxadiazol-3-yl)phenyl)-2-((((2-(trifluoromethyl)-1,3-thiazol-4-yl)carbonyl)amino)methyl)piperidine-1-carboxamide], the values for the inhibition at 1 µM in experiment [1], in experiment [2] and in experiment [3] were 1%, 20% and 72%, respectively.

For `Cn1cnc(C(=O)NCC2CCCCN2C(=O)Nc2ccc(-c3noc(C(F)(F)F)n3)cc2)c1` (stereo not drawn) [Example 40, 2-((((1-methyl-1H-imidazol-4-yl)carbonyl)amino)methyl)-N-(4-(5-(trifluoromethyl)-1,2,4-oxadiazol-3-yl)phenyl)piperidine-1-carboxamide], the inhibition at 1 µM is 3% in experiment [1], 11% in experiment [2] and 76% in experiment [3].

In the case of `Cn1nc(C(=O)NCC2CCCCN2C(=O)Nc2ccc(-c3noc(C(F)(F)F)n3)cc2)cc1C(F)(F)F` (stereo not drawn) [Example 59, 2-((((1-methyl-5-(trifluoromethyl)-1H-pyrazol-3-yl)carbonyl)amino)methyl)-N-(4-(5-(trifluoromethyl)-1,2,4-oxadiazol-3-yl)phenyl)piperidine-1-carboxamide], the inhibition at 1 µM in experiment [1] came to 1%; in experiment [2] it was 10%; in experiment [3], 63%.

For the compound `O=C(NCC1CCCCN1C(=O)Nc1ccc(-c2noc(C(F)(F)F)n2)cc1)c1ccccc1-c1ccccc1` (stereo not drawn) [Example 13, 2-(((biphenyl-2-ylcarbonyl)amino)methyl)-N-(4-(5-(trifluoromethyl)-1,2,4-oxadiazol-3-yl)phenyl)piperidine-1-carboxamide], the inhibition at 1 µM stood at 9% in experiment [1], 19% in experiment [2] and 82% in experiment [3].

For `O=C(NCC1CCCCN1C(=O)Nc1ccc(-c2noc(C(F)(F)F)n2)cc1)c1cccs1` (stereo not drawn) [Example 38, 2-(((2-thienylcarbonyl)amino)methyl)-N-(4-(5-(trifluoromethyl)-1,2,4-oxadiazol-3-yl)phenyl)piperidine-1-carboxamide], the inhibition at 1 µM is 7% in experiment [1], 37% in experiment [2] and 95% in experiment [3].

Turning to `O=C(NCC1CCCCN1C(=O)Nc1ccc(-c2noc(C(F)(F)F)n2)cc1)c1ccc(F)cc1` (stereo not drawn) [Example 6, 2-(((4-fluorobenzoyl)amino)methyl)-N-(4-(5-(trifluoromethyl)-1,2,4-oxadiazol-3-yl)phenyl)piperidine-1-carboxamide], the inhibition at 1 µM stood at 5% in experiment [1], 34% in experiment [2] and 94% in experiment [3].
